These results are taken from patent US20230242521A1, “PHARMACEUTICAL COMPOSITION FOR PREVENTING OR TREATING PANCREATIC CANCER ASSOCIATED WITH RON MUTATION AND METHOD USING SAME” (WELLMARKER BIO CO., LTD., priority 2020, published 2023).

Molecules are shown by their SMILES. Where a name gives a salt, the structure may show the parent alone.

Assay [1] deals with Panc-1 pancreatic cancer cell line (mutation RONΔ155 type). The experiment in a line: MTS assay, cell growth inhibitory ability, Panc-1. It counts as cell-based. Conditions: Homo sapiens; Panc-1, RON mutation Δ155, cultured 72 hours. The method, then:
(§1) In order to compare and confirm the cell growth inhibitory ability of Examples 1 (WM-S1-030) to 5 and positive control 1 (BMS-777607) in two pancreatic cancer cell lines ofa mutation RONΔ155 type (Panc-1 and Capan-1) and one pancreatic cancer cell line of a mutation RONΔ160 type (Mia-PaCa2), MTS assay was carried out.
(§2) For MTS assay, 1,000 cells of each pancreatic cancer cell line per well were seeded in a 96-well-plate, and 24 hours later, treated with the compounds of Examples 1 to 5 and positive control 1 at various concentrations (0.000001 μM to 10 μM) in 100 μL of 10% FBS-RPMI medium (Welgene) per each well. Thereafter, the cells were cultured for 72 hours. 20 μL of MTS solution (Promega) was added and cultured for 2 hours, and then absorbance was measured at 490 nm. The cytotoxicity was analyzed by deriving the IC50 for the compounds of Examples 1 to 5 and positive control 1 using GraphPad Prism™ 5.
A general note: Tetrazolium assays rely on reduction of a dye to a coloured formazan, in cell work by metabolically active cells.

The test system of assay [2] is Capan-1 pancreatic cancer cell line (mutation RONΔ155 type). Briefly: MTS assay, cell growth inhibitory ability, Capan-1. It counts as cell-based. As to conditions: Homo sapiens; Capan-1, RON mutation Δ155, cultured 72 hours. The method, then:
as §1, §2

In assay [3] the test system is Mia-PaCa2 pancreatic cancer cell line (mutation RONΔ160 type). The experiment in a line: MTS assay, cell growth inhibitory ability, Mia-PaCa2. It counts as cell-based. As to conditions: Homo sapiens; Mia-PaCa-2, RON mutation Δ160, cultured 72 hours. The method, then: as §1, §2
The subject of assay [4] is pancreatic cancer cell lines of mutation RONΔ155 type (Panc-1 and Capan-1) and RONΔ160 type (Mia-PaCa2). The experiment in a line: MTS assay, text summary over the three pancreatic cancer cell lines. It counts as cell-based. Conditions: Panc-1, Capan-1, Mia-PaCa2; 0.000001 μM to 10 μM, 72 hours. The procedure:
as §1, §2

Assay [5] relates to pancreatic cancer cell lines of a mutation RON type (Panc-1, Capan-1, Mia-PaCa2). Briefly: Cell killing efficacy, trypan blue exclusion assay. In kind it is cell-based. Conditions: 1 μM and 5 μM, 48 hours. The method, then:
FIGS. 1A to IC illustrate the results obtained by comparing and confirming the cell killing efficacy for the Panc-1 and Capan-1 cell lines, which are pancreatic cancer cell lines of a mutation RONΔ155 type, and the Mia-PaCa2 cell line, which is a pancreatic cancer cell line of a mutation RONΔ160 type, having been treated with the compounds of Examples 1 (WM-S1-030) to 5 and positive control 1 (BMS-777607) at a concentration of 1 μM and 5 μM, respectively.
Two pancreatic cancer cell lines of a mutation RONΔ155 type (Panc-1 and Capan-1) and one pancreatic cancer cell line of a mutation RONΔ160 type (Mia-PaCa2) were dispensed, and 24 hours later, treated with 1 μM and 5 μM of the compounds of Examples 1 (WM-S1-030) to 5 and positive control 1 (BMS-777607), respectively, while replacing the medium. After 48 hours, the cells and the cell fluid were harvested (1,500 rpm, 4 minutes), and live cells and dead cells were quantified through trypan blue (15250-061, Gibco) exclusion assay. Statistical analysis was performed using T-test in Excel.

The test system of assay [6] is Mia-PaCa2 (mRONΔ160) pancreatic cancer cell line transplanted tumor. The experiment in a line: Tumor growth inhibition in Mia-PaCa2 transplanted mouse model. It counts as in vivo. As to conditions: orally once a day for 4 weeks; for Tumor growth inhibition rate (TGI, %): 30 mg/kg, BALB/c-nude mice with Mia-PaCa2 tumor; for tumor growth inhibition (in words): 30 mpk, Mia-PaCa2 transplanted mice. An excerpt:
FIG. 2 illustrates the results obtained by confirming the tumor growth rate for a mouse model transplanted with the Mia-PaCa2 cell line, which is a pancreatic cancer cell line of a mutation RONΔ160 type, having received Example 1 (WM-S1-030) at a dose of 30 mpk and positive control 1 (BMS-777607) at a dose of 30 mpk. It was confirmed whether tumor growth was inhibited by administering Example 1 (WM-S1-030) at a dose of 30 mpk to a mouse model transplanted with Mia-PaCa2, which is a pancreatic cancer cell line of a mutation RONΔ160 type. Specifically, 5-week-old female BALB/c-nude mice were purchased and acclimatized for 1 week. Thereafter, Mia-PaCa2 (2×10^6 cells/mouse), a pancreatic cancer cell line of a mutation RONΔ160 type, was diluted in PBS (phosphate buffered saline) and Matrigel, and 100 μL was injected subcutaneously into the right dorsal side of the mouse. When the size of the tumor reached about 100 mm^3, the negative control (excipient) and Example 1 were orally administered. In this case, positive control 1 (BMS-777607) was administered at a dose of 30 mpk. The drug was administered once a day for 4 weeks, and the tumor size and body weight were measured twice a week. After the drug administration was completed, the mice were euthanized, the tumor was extracted, and the weight was measured.

For assay [7], the system named is pTyr-mRON. Briefly: Immunochemical staining of tumor tissue, Mia-PaCa2 transplanted mouse model: pTyr-mRON. In kind it is in vivo. As to conditions: 10 mpk, 30 mpk, Mia-PaCa2 transplanted mice. The procedure:
(§3) FIG. 3 illustrates the results obtained by immunochemical staining of the tumor tissue for a mouse model transplanted with the Mia-PaCa2 cell line, which is a pancreatic cancer cell line of a mutation RONΔ160 type, having received Example 1 (WM-S1-030) at a dose of 10 mpk or 30 mpk and the positive control (BMS-777607) at a dose of 30 mpk.
(§4) Example 1 (WM-S1-030) was administered at each concentration (10 mpk, 30 mpk) and positive control 1 (BMS-777607) was administered at a dose of 30 mpk to a mouse model transplanted with the Mia-PaCa2 cell line, which is a pancreatic cancer cell line of a mutation RONΔ160 type. The tumor was extracted, and the expression changes of the proteins were analyzed by immunochemical staining.
(§5) Specifically, paraffin slides were prepared using tissues isolated from the sacrificed mice. The tissue sections were deparaffinized and rehydrated, immersed in the target recovery buffer 1× (ScyTek Laboratories, Cat #CBB999) and heated for 15 minutes to perform an antigen recovery process. After the reaction, the tissue sections were washed in Tris buffered saline-0.05% Tween 20 (TBS-T) (T&I, BTT-9310) for 5 minutes, and then the reaction was performed with a non-specific antibody response blocking reagent (vector, SP-5035) for 1 hour. […]

Assay [8] has as its system cleaved caspase 3. The experiment in a line: Immunochemical staining of tumor tissue, Mia-PaCa2 transplanted mouse model: cleaved caspase 3. In kind it is in vivo. Conditions: 10 mpk, 30 mpk, Mia-PaCa2 transplanted mice. The procedure: as §3, §4, §5
The subject of assay [9] is cyclin D1. Briefly: Immunochemical staining of tumor tissue, Mia-PaCa2 transplanted mouse model: cyclin D1. In kind it is in vivo. Conditions: 10 mpk, 30 mpk, Mia-PaCa2 transplanted mice. The procedure: as §3, §4, §5

In the case of `CCOc1ccn(-c2ccccc2)c(=O)c1C(=O)Nc1ccc(Oc2ccnc3cc(-c4ccc(CN5CCN(C)CC5)cn4)sc23)c(F)c1` [Example 3, 4-ethoxy-N-{3-fluoro-4-[(2-(5-[(-methylpiperazin-1-yl)methyl]pyridin-2-yl)thieno[3,2-b]pyridin-7-yl)oxy]phenyl}-2-oxo-1-phenyl-1,2-dihydropyridine-3-carboxamide hydrochloride], the IC50 (in general, the point on the concentration scale where inhibition reaches its midpoint) in assay [1] amounted to 1090 nM; in assay [2], 370 nM; in assay [3] it was 250 nM.

Turning to `CCOc1ccn(-c2ccc(F)cc2)c(=O)c1C(=O)Nc1ccc(Oc2ccnc(N)c2Cl)c(F)c1` [Positive control 1, N-{4-[(2-amino-3-chloro-4-pyridinyl)oxy]-3-fluorophenyl}-4-ethoxy-1-(4-fluorophenyl)-2-oxo-1,2-dihydro-3-pyridinecarboxamide, reference compound], the concentration for half-maximal inhibition (IC50) in assay [1] is greater than 10000 nM; in [2], greater than 10000 nM; in assay [3] it was 6060 nM. In assay [4], the “response to the drug / cell growth inhibition (MTS)” value is recorded as “the response to the drug was low”. For the same compound, in assay [5], the “cell death / response to the drug (trypan blue exclusion)” value is given as “the response to the drug was low”. Also, the “Tumor growth inhibition rate (TGI, %)” value in [6] is 4.7 ± 7.4%. Also, the “tumor growth inhibition (in words)” value in [6] is “tumor growth was inhibited relatively little”.

In the case of `CCOc1ccn(-c2ccc(F)cc2)c(=O)c1C(=O)Nc1ccc(Oc2ccnc3cc(-c4ccc(CN5CCOCC5)cn4)sc23)c(F)c1.Cl` [Example 1, 4-ethoxy-N-[3-fluoro-4-({2-[5-(morpholinomethyl)pyridin-2-yl]thieno[3,2-b]pyridin-7-yl}oxy)phenyl]-1-(4-fluorophenyl)-2-oxo-1,2-dihydropyridine-3-carboxamide hydrochloride], the IC50 is 2440 nM in [1], 630 nM in [2] and 620 nM in assay [3]. In addition, in assay [6], the “Tumor growth inhibition rate (TGI, %)” value is 57.2 ± 3.1%. Moreover, in assay [6], the “tumor growth inhibition (in words)” value was “tumor growth was significantly inhibited”. Moreover, in [7], the “expression of pTyr-mRON in tumor tissue” value is on record as “the expression of pTyr-mRON was decreased”. In addition, the “expression of cleaved caspase 3 in tumor tissue” value in [8] is reported as “the expression of cleaved caspase 3 was induced”. Besides, the “expression of cyclin D1 (PD marker) in tumor tissue” value in [9] is recorded as “the expression of cyclin D1, a PD marker, was decreased”.

For the compound `CCOc1ccn(-c2ccccc2)c(=O)c1C(=O)Nc1ccc(Oc2ccnc3cc(-c4ccc(CNCCOC)cn4)sc23)c(F)c1` [Example 2, 4-ethoxy-N-(3-fluoro-4-{[2(5-{[(2-methoxyethyl)amino]methyl}pyridin-2-yl)thieno[3,2-b]pyridin-7-yl]oxy}phenyl)-2-oxo-1-phenyl-1,2-dihydropyridine-3-carboxamide hydrochloride], the 50% inhibitory concentration (IC50) was determined as 3880 nM in assay [1], 1540 nM in assay [2] and 1840 nM in assay [3].

For the compound `COc1cc2c(Oc3ccc(NC(=O)c4c5c(cn(-c6ccc(F)cc6)c4=O)CCO5)cc3F)ccnc2cc1OCCCN1CC(C#N)C1` [Example 5, N-[4-({7-[3-(3-cyanoazetidin-1-yl)propoxy]-6-methoxyquinolin-4-yl}oxy)-3-fluorophenyl]-5-(4-fluorophenyl)-6-oxo-2,3,5,6-tetrahydrofuro[3,2-c]pyridine-7-carboxamide], the half-inhibitory concentration (IC50) in assay [1] was found to be 310 nM; in [2], 170 nM; in assay [3] it was 150 nM.

Take `COc1cc2c(Oc3ccc(NC(=O)c4c5c(cn(-c6ccc(F)cc6)c4=O)CCO5)cc3F)ccnc2cc1OCCN1CCOCC1` [Example 4, N-(3-fluoro-4-{[6-methoxy-7-(2-morpholinoethoxy)quinolin-4-yl]oxy}phenyl)-5-(4-fluorophenyl)-6-oxo-2,3,5,6-tetrahydrofuro[3,2-c]pyridine-7-carboxamide]: the values for the IC50 in [1], in assay [2] and in assay [3] were 460 nM, 320 nM and 370 nM, respectively.
